How the values were obtained:
Format in all cases: in vivo
Settings in all cases: evaluated after 13 days
[1] = test system: Amaranthus retoflexus (AMARE); test: Post-emergence herbicidal glasshouse test, Amaranthus retoflexus (AMARE)
In short: (§1)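 Plants sprayed 1 day (pre-emergence) or 8 days (post-emergence) after sowing, at 500 g/h unless indicated, in acetone/water (50:50) with 0.5% Tween 20. Glasshouse 24/16 °C, 14 h light, 65% humidity. Damage scored at 13 days on a five-point scale (5=80-100% to 1=0-19%).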

[2] = test system: Echinochloa crus-galli (ECHCG); test: Pre-emergence herbicidal glasshouse test, Echinochloa crus-galli (ECHCG)
In short: as §1

Setaria faberi (SETFA) [3] = test: Pre-emergence herbicidal glasshouse test, Setaria faberi (SETFA)
In short: as §1

[4] = test system: Ipomoea hederacea (IPOHE); test: Post-emergence herbicidal glasshouse test, Ipomoea hederacea (IPOHE)
In short: as §1

[5] = test system: Amaranthus retoflexus (AMARE); test: Pre-emergence herbicidal glasshouse test, Amaranthus retoflexus (AMARE)
In short: as §1

[6] = test system: Echinochloa crus-galli (ECHCG); test: Post-emergence herbicidal glasshouse test, Echinochloa crus-galli (ECHCG)
In short: as §1

[7] = test system: Ipomoea hederacea (IPOHE); test: Pre-emergence herbicidal glasshouse test, Ipomoea hederacea (IPOHE)
In short: as §1

Setaria faberi (SETFA) [8] = test: Post-emergence herbicidal glasshouse test, Setaria faberi (SETFA)
In short: as §1

[9] = test system: Abutilon theophrasti (ABUTH); test: Pre-emergence herbicidal glasshouse test, Abutilon theophrasti (ABUTH)
In short: as §1

[10] = test system: Abutilon theophrasti (ABUTH); test: Post-emergence herbicidal glasshouse test, Abutilon theophrasti (ABUTH)
In short: as §1

SMILES	POST Application AMARE, percentage damage (five point scale) ([1]; 500 g/h)	PRE Application ECHCG, percentage damage (five point scale) ([2]; 500 g/h)	PRE Application SETFA, percentage damage (five point scale) (Setaria faberi (SETFA) [3]; 500 g/h)	POST Application IPOHE, percentage damage (five point scale) ([4]; 500 g/h)	PRE Application AMARE, percentage damage (five point scale) ([5]; 500 g/h)	POST Application ECHCG, percentage damage (five point scale) ([6]; 500 g/h)	PRE Application IPOHE, percentage damage (five point scale) ([7]; 500 g/h)	POST Application SETFA, percentage damage (five point scale) (Setaria faberi (SETFA) [8]; 500 g/h)	PRE Application ABUTH, percentage damage (five point scale) ([9]; 500 g/h)	POST Application ABUTH, percentage damage (five point scale) ([10]; 500 g/h)	POST Application AMARE, percentage damage (five point scale) ([1]; applied at 250 g/ha)	PRE Application ECHCG, percentage damage (five point scale) ([2]; applied at 250 g/ha)	PRE Application SETFA, percentage damage (five point scale) (Setaria faberi (SETFA) [3]; applied at 250 g/ha)	POST Application IPOHE, percentage damage (five point scale) ([4]; applied at 250 g/ha)	PRE Application AMARE, percentage damage (five point scale) ([5]; applied at 250 g/ha)	POST Application ECHCG, percentage damage (five point scale) ([6]; applied at 250 g/ha)	PRE Application IPOHE, percentage damage (five point scale) ([7]; applied at 250 g/ha)	POST Application SETFA, percentage damage (five point scale) (Setaria faberi (SETFA) [8]; applied at 250 g/ha)	PRE Application ABUTH, percentage damage (five point scale) ([9]; applied at 250 g/ha)	POST Application ABUTH, percentage damage (five point scale) ([10]; applied at 250 g/ha)
Cc1nnc(NC(=O)c2ccc(C(F)(F)F)c(/N=C/N(C)C)c2Cl)o1 [Compound 2.049, 2-chloro-3-[(E)-dimethylaminomethyleneamino]-N-(5-methyl-1,3,4-oxadiazol-2-yl)-4-(trifluoromethyl)benzamide]	5 (5=80-100%)	5 (5=80-100%)	5 (5=80-100%)	5 (5=80-100%)	5 (5=80-100%)	5 (5=80-100%)	5 (5=80-100%)	5 (5=80-100%)	5 (5=80-100%)	5 (5=80-100%)	–	–	–	–	–	–	–	–	–	–
CCN(C=Nc1c(C(F)(F)F)ccc(C(=O)Nc2nnc(C)o2)c1Cl)CC [Compound 2.055]	5 (5=80-100%)	5 (5=80-100%)	5 (5=80-100%)	4 (4=60-79%)	5 (5=80-100%)	5 (5=80-100%)	5 (5=80-100%)	5 (5=80-100%)	5 (5=80-100%)	4 (4=60-79%)	–	–	–	–	–	–	–	–	–	–
CC(=NOCc1c(S(C)(=O)=O)ccc(C(=O)Nc2nnc(C)o2)c1Cl)N(C)C [Compound 2.129]	5 (5=80-100%)	3 (3=40-59%)	3 (3=40-59%)	5 (5=80-100%)	5 (5=80-100%)	5 (5=80-100%)	2 (2=20-39%)	5 (5=80-100%)	5 (5=80-100%)	5 (5=80-100%)	–	–	–	–	–	–	–	–	–	–
Cc1nnc(NC(=O)c2ccc(C(F)(F)F)c(N=CN(C)c3ccccc3)c2Cl)o1 [Compound 2.131]	5 (5=80-100%)	5 (5=80-100%)	5 (5=80-100%)	3 (3=40-59%)	5 (5=80-100%)	5 (5=80-100%)	2 (2=20-39%)	5 (5=80-100%)	3 (3=40-59%)	4 (4=60-79%)	–	–	–	–	–	–	–	–	–	–
Cc1nnc(NC(=O)c2ccc(C(F)(F)F)c(N=CN3CCCC3)c2Cl)o1 [Compound 2.132]	5 (5=80-100%)	5 (5=80-100%)	5 (5=80-100%)	5 (5=80-100%)	5 (5=80-100%)	5 (5=80-100%)	5 (5=80-100%)	5 (5=80-100%)	5 (5=80-100%)	5 (5=80-100%)	–	–	–	–	–	–	–	–	–	–
Cc1nnc(NC(=O)c2ccc(C(F)(F)F)c(N=CN(C)C(C)C)c2Cl)o1 [Compound 2.140]	5 (5=80-100%)	5 (5=80-100%)	5 (5=80-100%)	4 (4=60-79%)	5 (5=80-100%)	5 (5=80-100%)	4 (4=60-79%)	5 (5=80-100%)	5 (5=80-100%)	5 (5=80-100%)	–	–	–	–	–	–	–	–	–	–
Cc1nnc(NC(=O)c2ccc(S(C)(=O)=O)c(N=CN(C)CC(F)(F)F)c2Cl)o1 [Compound 2.142]	–	–	–	–	–	–	–	–	–	–	5 (5=80-100%)	5 (5=80-100%)	5 (5=80-100%)	5 (5=80-100%)	5 (5=80-100%)	5 (5=80-100%)	1 (1=0-19%)	5 (5=80-100%)	3 (3=40-59%)	5 (5=80-100%)
Cc1nnc(NC(=O)c2ccc(S(C)(=O)=O)c(N=CN(C)CC(F)(F)F)c2C)o1 [Compound 2.143]	5 (5=80-100%)	5 (5=80-100%)	5 (5=80-100%)	5 (5=80-100%)	5 (5=80-100%)	5 (5=80-100%)	5 (5=80-100%)	5 (5=80-100%)	5 (5=80-100%)	5 (5=80-100%)	–	–	–	–	–	–	–	–	–	–

Source: US11272709B2, “Amidine substituted benzoyl derivatives useful as herbicides” (Syngenta Participations AG, priority 2018, dated 2022)
